From publication PMC8373216, “Development and Preclinical Evaluation of New Inhaled Lipoglycopeptides for the Treatment of Persistent Pulmonary Methicillin-Resistant Staphylococcus aureus Infections” (Antimicrobial Agents and Chemotherapy, 2021)
Where two headings read alike, the source gives them in different places.

What was measured:
[1] = test system: MRSA ATCC BAA 1556 (USA300); test: In-house broth microdilution MIC screening; assay type: cell-based, Staphylococcus aureus; conditions: Staphylococcus aureus, read-out: MIC Value, MRSA ATCC BAA 1556
[2] = test system: Staphylococcus epidermidis; test: Expanded panel broth microdilution MIC/MBC; assay type: cell-based; conditions: for MIC: Staphylococcus epidermidis
Enterococcus faecium = test: Expanded panel broth microdilution MIC/MBC; assay type: cell-based; conditions: for MIC: Enterococcus faecium
Streptococcus agalactiae = test: Expanded panel broth microdilution MIC/MBC; assay type: cell-based
[3] = test system: Streptococcus dysgalactiae; test: Expanded panel broth microdilution MIC/MBC; assay type: cell-based; conditions: for MIC: Streptococcus dysgalactiae
Streptococcus anginosus = test: Expanded panel broth microdilution MIC/MBC; assay type: cell-based; conditions: for MIC: Streptococcus anginosus
[4] = test system: Streptococcus constellatus; test: Expanded panel broth microdilution MIC; assay type: cell-based
Streptococcus oralis = test: Expanded panel broth microdilution MIC; assay type: cell-based
Clostridium. perfringens = test: microbe, parasite or virus in culture; assay type: cell-based
[5] = test system: Peptostreptococcus anaerobius; test: Expanded panel broth microdilution MIC; assay type: cell-based
Cutibacterium acnes = test: Expanded panel broth microdilution MIC; assay type: cell-based
S. aureus = test: Expanded panel broth microdilution MIC/MBC; conditions: for MIC: Staphylococcus aureus
[6] = test system: MRSA ATCC BAA 1556 (USA300) biofilm; test: Static MRSA biofilm killing, plastic microtiter plate, MEM

CN[C@H](CC(C)C)C(=O)N[C@H]1C(=O)N[C@@H](CC(N)=O)C(=O)N[C@H]2C(=O)N[C@H]3C(=O)N[C@H](C(=O)N[C@H](C(=O)O)c4cc(O)cc(O)c4-c4cc3ccc4O)[C@H](O)c3ccc(c(Cl)c3)Oc3cc2cc(c3O[C@@H]2O[C@H](CO)[C@@H](O)[C@H](O)[C@H]2O[C@H]2C[C@](C)(N)[C@H](O)[C@H](C)O2)Oc2ccc(cc2Cl)[C@H]1O [Vancomycin, vancomycin]
0.12 µg/mL: MIC [5] | MIC ([5]; ATCC27337) | MIC (Cutibacterium acnes; ATCC11827)
2 µg/mL: MIC (S. aureus; NRS13 / VISA, S. aureus NRS13, VISA) | MIC (S. aureus; NRS23, S. aureus NRS23, hVISA)
0.25 µg/mL: MIC (Streptococcus agalactiae; S. agalactiae MMX 4115, ermR) | MIC (Streptococcus agalactiae; S. agalactiae ermR, 1 isolate) | MIC (Streptococcus agalactiae; Streptococcus agalactiae) | MIC (Streptococcus agalactiae; Streptococcus agalactiae, ATCC13813) | MIC (Streptococcus agalactiae; Streptococcus agalactiae, read-out: MIC (median)) | MIC ([3]; S. dysgalactiae MMX 5121) | MIC ([3]; S. dysgalactiae MMX 5123) | MIC ([3]; S. dysgalactiae MMX 5124) | MIC ([3]; read-out: MIC (median), S. dysgalactiae, 3 isolates) | MIC ([4]; S. constellatus AGS, 1 isolate) | MIC ([4]; Streptococcus constellatus) | MIC (Clostridium. perfringens) | MIC (Clostridium. perfringens; ATCC13124, read-out: MIC) | MIC (Cutibacterium acnes; ATCC6919)
1: MIC:MBC ([2]; S. epidermidis MRSE, MBC on one organism) | MIC:MBC (S. aureus; S. aureus MRSA, MBC median of n = 5) | MIC:MBC (S. aureus; S. aureus MSSA, MBC on one organism) | MIC:MBC (S. aureus; S. aureus hVISA, MBC on one organism)
1 µg/mL: MIC [1] | MIC ([2]; MRSE, S. epidermidis MMX 762, MRSE) | MIC ([2]; MRSE, S. epidermidis MMX 5145, MRSE) | MIC ([2]; MRSE, read-out: MIC (median), S. epidermidis MRSE, 2 isolates) | MIC (S. aureus; ATCC13709 / MSSA, S. aureus ATCC 13709, MSSA) | MIC (S. aureus; ATCC29213 / MSSA, S. aureus ATCC 29213, MSSA) | MIC (S. aureus; ATCC43300 / MRSA, S. aureus ATCC 43300, MRSA) | MIC (S. aureus; NRS2, S. aureus NRS2, hVISA;Mu3) | MIC (S. aureus; NRS52 / VISA, S. aureus NRS52, VISA)
>64 µg/mL: MIC (median) (S. aureus; S. aureus VRSA, 12 isolates (JMI Laboratories))
0.19 µg/mL: MIC (Cutibacterium acnes; read-out: MIC (median))
>8: MIC:MBC ([3]; S. dysgalactiae, MBC on one organism) | MIC:MBC (Streptococcus anginosus; S. anginosus AGS)
1.5 µg/mL: MIC (S. aureus; read-out: MIC (median), S. aureus hVISA, 2 isolates)
64 µg/mL: MIC (Enterococcus faecium; VRE, E. faecium MMX 173, VanB VRE) | MIC (Enterococcus faecium; VRE, E. faecium VanB VRE, 1 isolate)
≥ 22 µg/mL: Concentrations with statistically significant reduction versus control biofilm ([6]; two-way ANOVA, Bonferroni)
3 log10 CFU/ml: Reduction in MRSA biofilm titer ([6]; >20 μg/ml dose)
> 64 µg/mL: MIC (S. aureus; VRSA, read-out: MIC (median), S. aureus VRSA, 12 isolates (JMI Laboratories))
>2: MIC:MBC (Enterococcus faecium; E. faecium VanB VRE)
4: MIC:MBC (Streptococcus agalactiae; S. agalactiae, MBC on one organism) | MIC:MBC (S. aureus; S. aureus VISA, MBC median of n = 2)
4 µg/mL: MIC (S. aureus; NRS1 / VISA, S. aureus NRS1, VISA, Mu50) | MIC (S. aureus; NRS4 / VISA, S. aureus NRS4, VISA) | MIC (S. aureus; NRS22 / VISA, S. aureus NRS22, VISA) | MIC (S. aureus; VISA, read-out: MIC (median), S. aureus VISA, 5 isolates)
0.75 µg/mL: MIC (S. aureus; MSSA, read-out: MIC (median), S. aureus MSSA, 4 isolates)
128 µg/mL: MIC (Enterococcus faecium; VRE, E. faecium MMX 851, VanA VRE) | MIC (Enterococcus faecium; VRE, E. faecium VanA VRE, 1 isolate)
approximately 2 log10 CFU/ml: Reduction in MRSA biofilm titer versus control ([6]; doses 1 to 10 μg/ml)
0.5 µg/mL: MIC ([2]; ATCC49134, S. epidermidis ATCC 49134, MSSE) | MIC ([2]; S. epidermidis MSSE, 1 isolate) | MIC (Enterococcus faecium; E. faecium MMX 4204, VSE) | MIC (Enterococcus faecium; E. faecium VSE, 1 isolate) | MIC (Streptococcus anginosus) | MIC (Streptococcus anginosus; ATCC33397) | MIC (Streptococcus oralis; S. oralis MGS, 1 isolate) | MIC (Streptococcus oralis; Streptococcus oralis) | MIC (S. aureus; ATCCBAA1556|MRSA|USA300, S. aureus ATCC BAA-1556, MRSA, USA300 (expanded panel)) | MIC (S. aureus; ATCCBAA1756|MRSA|NRS384|USA300, S. aureus NRS 384, ATCC BAA-1756, MRSA, USA300) | MIC (S. aureus; MRSA / NRS123 / USA400, S. aureus NRS123, MRSA, USA400) | MIC (S. aureus; MRSA / NRS725 / USA300, S. aureus NRS725, MRSA, USA300) | MIC (S. aureus; MRSA / USA300, S. aureus MMX 3982, MRSA, USA300) | MIC (S. aureus; MRSA, S. aureus MMX 7899, MRSA) | MIC (S. aureus; MRSA, S. aureus MMX 7900, MRSA) | MIC (S. aureus; MRSA, S. aureus MMX 7901, MRSA) | MIC (S. aureus; MRSA, S. aureus MMX 7902, MRSA) | MIC (S. aureus; MRSA, S. aureus MMX 7903, MRSA) | MIC (S. aureus; MRSA, read-out: MIC (median), S. aureus MRSA, 12 isolates) | MIC (S. aureus; MSSA, S. aureus MMX 7907, MSSA) | MIC (S. aureus; MSSA, S. aureus MMX 7908, MSSA)
